# Data reported in paper PMC10302127 (Medicina, 2023).
# Assays:
# B. subtilis [1] = assay: Antibacterial disc diffusion; type: cell-based, Bacillus subtilis; details: B. subtilis (G + ve)
# Description: (§1) The antibacterial activity of the synthesized compound was evaluated using the disc diffusion method in accordance with the clinical and laboratory standards institute’s recommendations. Molten Mueller–Hinton agar and Sabouraud dextrose agar media were inoculated with the inoculum at 35 ± 2 °C and then poured into a Petri dish (90 mm). Each sample was soaked on 6 mm absorbent discs in dimethyl sulfoxide (DMSO) and placed on the inoculation plates. After 2 h at 4 °C, the plates were incubated at 35 ± 2 °C for 18–20 h. The inhibition zone diameters were determined. Positive control discs of selected antibiotics were included in each assay; inhibition zones were compared to the reference discs. Negative controls were treated with DMSO, and the assays were performed in triplicate.
# S. typhi = assay: Antibacterial disc diffusion; type: cell-based, Salmonella typhi; details: S. typhi (G − ve)
# Description: as §1
# P. aeruginosa [2] = assay: Antibacterial disc diffusion; type: cell-based, Pseudomonas aeruginosa; details: P. aeruginosa (G − ve)
# Description: as §1
# S. aureus = assay: Antibacterial disc diffusion; type: cell-based; details: S. aureus (G + ve) in Table 2, disc diffusion
# Description: as §1
# E. coli [3] = assay: Antibacterial disc diffusion; type: cell-based, Escherichia coli; details: E. coli (G − ve)
# Description: as §1
# five bacterial pathogens = assay: Antibacterial disc diffusion, statements on groups of bacteria; type: cell-based
# Description: as §1
# brine shrimp nauplii = assay: Brine shrimp lethality bioassay; details: 24 and 48 h
# Description: Vials A, B, C, and D contained 4, 8, 16, and 32 μL of material. Each vial received 10 brine shrimp nauplii at […]. Ten nauplii in 5 mL saltwater were used for a control test. The vials were incubated at room temperature for 24–48 h. After incubation, the vials were magnified and counted to determine how many survived. Each concentration has an average nauplii mortality rate.
# S.typhi = assay: MIC and MBC microdilution; details: Salmonella enterica
# Description: (§3) Microdilution techniques were employed to calculate the minimum inhibitory concentration (MIC) and the minimum bactericidal concentration (MBC). […] After solidification, the medium incorporated was seeded from suspensions of bacteria at a concentration of 0.5 McFarland standard (1.0 × 10^8 CFU/mL). After 18–20 h of incubation at 35 ± 2 °C, the absence or presence of microbial growth in Petri dishes was determined by examination with the naked eye. […] All compounds were evaluated three times against each microorganism.
# B. subtilis [4] = assay: MIC and MBC microdilution; details: Bacillus subtilis
# Description: as §3
# Aspergillus flavus = assay: Mycelial growth inhibition, poisoned food method; type: cell-based; details: 20 μg/μL in DMSO
# Description: (§2) The potato dextrose agar (PDA)-based antifungal experiment was screened using the food poisoning approach. Sterilized 70 mm glass Petri dishes were filled with 20 mL melted PDA (45 °C). After the medium solidified, sterilized needles placed small amounts of mycelia from the two fungal pathogens in the center of each plate. […] After 48 h at 37 °C, mycelial growth was measured.
# Bacillus cereus = assay: Antibacterial disc diffusion; type: cell-based; details: as named in text
# Description: as §1
# P. aeruginosa [5] = assay: MIC and MBC microdilution; details: Pseudomonas aeruginosa
# Description: as §3
# E. coli [6] = assay: MIC and MBC microdilution; details: Escherichia coli
# Description: as §3
# B. cereus = assay: MIC and MBC microdilution; details: Bacillus cereus
# Description: as §3
# Aspergillus niger = assay: Mycelial growth inhibition, poisoned food method; type: cell-based; details: for Millimeters of Fungal Mycelial Growth Inhibition in DMSO (20 μg/μL): Aspergillus niger, 20 μg/μL in DMSO
# Description: as §2
# [7] = system: EAC (Ehrlich ascites carcinoma) cells; assay: MTT assay, antiproliferative activity; type: cell-based, Swiss albino mouse
# Description: Ehrlich ascites carcinoma (EAC) cells were cultivated in conventional DMEM from a Swiss albino mouse bearing a tumor [45]. A 96-well flat-bottomed cell culture plate with 2 × 10^4 cells in 100 μL was incubated at 37 °C in a CO2 incubator for 24 h. Controls were three wells of untreated EAC cells in DMEM. […] After removing the aliquot, 10 mM PBS and 20 μL of MTT reagent (5 mg/mL MTT in PBS) were added. After another 8 h at 37 °C, the aliquot was drained, and acidic isopropanol (200 μL) was added. Absorbance values at 570 nm were recorded after another 30 min CO2 incubator incubation. The following formula was used to estimate cell proliferation incubation:Proliferation inhibition ratio (%) = (A − B) × 100/A where A and B represent the cellular homogenate OD570 nm from control wells and compound 6-treated wells, respectively.
SMILES,Diameter of Inhibition Zones (S. typhi),Diameter of Inhibition Zones (S. aureus),activity against Gram-positive organisms (five bacterial pathogens),inhibition among all bacterial types (five bacterial pathogens),death (brine shrimp mortality) (brine shrimp nauplii),inhibition against the Gram-negative bacteria P. aeruginosa and S. typhi (five bacterial pathogens),Millimeters of Fungal Mycelial Growth Inhibition in DMSO (20 μg/μL) (Aspergillus flavus),inhibition of A. niger (Aspergillus niger),Millimeters of Fungal Mycelial Growth Inhibition in DMSO (20 μg/μL) (Aspergillus niger),further results
"CC[C@H]1OC(=O)[C@H](C)[C@@H](O[C@H]2C[C@@](C)(OC)[C@@H](O)[C@H](C)O2)[C@H](C)[C@@H](O[C@@H]2O[C@H](C)C[C@H](N(C)C)[C@H]2O)[C@](C)(O)C[C@@H](C)CN(C)[C@H](C)[C@@H](O)[C@]1(C)O [Azithromycin, reference compound]",** 18 ± 0.90 mm,** 17 ± 0.50 mm,–,–,–,–,–,–,–,Diameter of Inhibition Zones (B. subtilis [1]): ** 18 ± 0.10 mm; Diameter of Inhibition Zones (P. aeruginosa [2]): ** 15 ± 0.10 mm; Diameter of Inhibition Zones (E. coli [3]): ** 17 ± 0.50 mm
"O=c1ccn([C@@H]2O[C@H](CO)[C@@H](O)[C@H]2O)c(=O)[nH]1 [Compound 1, uridine, reference compound]",–,–,inactive,no inhibition,–,–,–,–,–,–
"CCCCCCCCCCCCCCCC(=O)OC[C@H]1O[C@@H](n2ccc(=O)[nH]c2=O)[C@H](O)[C@@H]1O [Compound 2, 5′-Oxo-palmitoyluridine]",–,–,inactive,no inhibition,31.21%,–,–,–,–,–
"CCCCCCCCCCCCCCCC(=O)OCC1OC(n2ccc(=O)[nH]c2=O)C(OC(=O)CCCCCCCCCCC)C1OC(=O)CCCCCCCCCCC (centres unmarked) [Compound 3, 2′,3′-Di-oxo-lauroyl-5′-oxo-palmitoyluridine]",* 11.0 ± 0.0 mm,–,inactive,–,48.24–49.28%,reasonable inhibition,–,–,–,–
"CCCCCCCCCCCCCCCC(=O)OCC1OC(n2ccc(=O)[nH]c2=O)C(OC(=O)CCCCCCCCCCCCC)C1OC(=O)CCCCCCCCCCCCC (centres unmarked) [Compound 4, 2′,3′-Di-oxo-myristoyl-5′-oxo-palmitoyluridine]",–,* 15 ± 0.50 mm,–,–,48.24–49.28%,reasonable inhibition,31 ± 0.15 Millimeters,–,–,Diameter of Inhibition Zones (P. aeruginosa [2]): 7 ± 0.25 mm; MBC (S.typhi): 16 µg/mL; MIC (S.typhi): 0.5 µg/mL; MBC (B. subtilis [4]): 8 µg/mL; MIC (B. subtilis [4]): 4 µg/mL; inhibition zone (Bacillus cereus): 15 ± 0.50 mm; MBC (P. aeruginosa [5]): 16 µg/mL; MIC (P. aeruginosa [5]): 0.5 µg/mL; MIC (E. coli [6]): 0.5 µg/mL; MIC (B. cereus): 0.13 µg/mL
"CCCCCCCCCCCCCCCC(=O)OCC1OC(n2ccc(=O)[nH]c2=O)C(OC(c2ccccc2)(c2ccccc2)c2ccccc2)C1OC(c1ccccc1)(c1ccccc1)c1ccccc1 (centres unmarked) [Compound 5, 5′-oxo-Palmitoyl-2′,3′-di-oxo-trityluridine]",* 12 ± 0.25 mm,* 16 ± 0.20 mm,–,–,34.25%,–,* 66 ± 0.39 Millimeters,64 ± 0.44%,* 64 ± 0.44 Millimeters,MBC (S.typhi): 8 µg/mL; MIC (S.typhi): 0.5 µg/mL; MBC (B. subtilis [4]): 8 µg/mL; MIC (B. subtilis [4]): 0.5 µg/mL; inhibition zone (Bacillus cereus): 16 ± 0.20 mm; MIC (E. coli [6]): 4 µg/mL; MBC (E. coli [6]; E. coli): 8 µg/mL; MIC (B. cereus): 1 µg/mL; MBC (B. cereus; B. cereus): 16 µg/mL
"CCCCCCCCCCCCCCCC(=O)OC[C@H]1O[C@@H](n2ccc(=O)[nH]c2=O)[C@H](OC(=O)C=Cc2ccccc2)[C@@H]1OC(=O)C=Cc1ccccc1 [Compound 6, 2′,3′-Di-oxo-cinnamoyl-5′-oxo-palmitoyluridine]",–,–,inactive,no inhibition,–,–,53 ± 0.33 Millimeters,72 ± 0.95%,* 72 ± 0.95 Millimeters,"cytotoxicity effects ([7]; 15.625 µg/mL): 3.11%; cytotoxicity effects ([7]; 31.25 µg/mL): 4.41%; cytotoxicity effects ([7]; 62.25 µg/mL (62.5 in Figure 5)): 5.41%; cytotoxicity effects ([7]; 125 µg/mL): 7.51%; cytotoxicity effects ([7]; 250 µg/mL): 14.02%; cytotoxicity effects ([7]; 500 µg/mL): 23.22%; IC50 ([7]; Mus musculus, Ehrlich, MTT): > 500 µg/mL"
"CCCCCCCCCCCCCCCC(=O)OC[C@H]1O[C@@H](n2ccc(=O)[nH]c2=O)[C@H](OC(=O)c2ccc(C(C)(C)C)cc2)[C@@H]1OC(=O)c1ccc(C(C)(C)C)cc1 [Compound 7, 2′,3′-Di-oxo-(4-t-butylbenzoyl)-5′-oxo-palmitoyluridine]",9 ± 0.00 mm,–,inactive,–,33.71%,reasonable inhibition,* 63 ± 0.10 Millimeters,66 ± 0.41%,* 66 ± 0.41 Millimeters,–
"C[C@@H]1[C@H](O)[C@@H](C)/C=C/C=C/CC/C=C/C=C/C=C/C=C/C(O[C@H]2O[C@H](C)[C@@H](O)[C@H](N)[C@@H]2O)CC2O[C@](O)(CC(O)C(O)CCC(O)CC(O)CC(O)CC(=O)O[C@H]1C)CC(O)C2C(=O)O (some centres unmarked) [Nystatin, reference compound]",–,–,–,–,–,–,61 ± 0.00 Millimeters,59 ± 0.00%,59 ± 0.00 Millimeters,–
